Laboratory results: article PMC9405123, “Design, Synthesis and Mechanistic Studies of Novel Isatin-Pyrazole Hydrazone Conjugates as Selective and Potent Bacterial MetAP Inhibitors” (Antibiotics, 2022)
Values after ≈ are worked out from the molar mass of the structure shown. Read-outs that look alike come from different tables or passages of the source.

What was measured:
Staphylococcus aureus = conditions: cited from earlier work
MtMetAP1c = target: T1, MtMetAP1c (Mycobacterium tuberculosis, UniProt P9WK19); experiment: MetAP enzyme inhibition, Morrison Ki (Met-AMC fluorescence); format: biochemical, M. tuberculosis; conditions: Morrison Ki method
T1 construct: made in house
Method: MetAP appears to serve a vital role in the co- or post-translational modification of proteins, making it essential for bacterial cell metabolism and survival. In this study, all enzymes, which were used for this study, including MtMetAP1c (M. tuberculosis), EfMetAP1a (E. faecalis), SpMetAP1a (S. pneumoniae) and HsMetAP1b (H. sapiens) enzymes, were expressed and purified in our lab as previously reported. All compounds prepared 10 mM stocks in DMSO and were used for enzyme inhibition studies. The concentration of each enzyme is adjusted such that they have similar reaction rates (HsMetAp1b, 1 µM; SpMetAP1a, 5 µM; EfMetAP1a, 1 µM; MtMetAP1c, 1 µM;) as reported earlier. All assays were performed in […] reaction containing 50 mM HEPES (pH 7.5 for SpMetAP1a and HsMetAP1b; 8.0 for EfMetAP1a, MtMetAP1c, […]), 150 mM NaCl, and CoCl2 (three molar equivalents of corresponding enzymes). The reaction was started by adding 50 μM L-Methionine 7-amido-4-methyl coumarin (Met-AMC) and continuously monitoring the fluorescence of released 7-amino-4-methyl coumarin (AMC) (380 nm excitation and 460 nm emission) in a microplate multimode reader (TECAN, Austria). The maximum percentage of inhibition against enzymes is calculated at […] compound concentration. […] The Ki values were determined according to the Morrison method using three different concentrations of substrates and ten different concentrations of the inhibitor. All experiments were performed in triplicate. GraphPad Prism version 8.0.0 (San Diego, CA, USA) was used to determine all the kinetic parameters.

EfMetAP1a = EfMetAP1a (Enterococcus faecalis, UniProt Q832M5); experiment: as above; format: biochemical; conditions: Morrison Ki method
SpMetAP1a = SpMetAP1a (Streptococcus pneumoniae, UniProt Q8DPV1); experiment: as above; format: biochemical; conditions: Morrison Ki method
HsMetAP1b = target: T2, HsMetAP1b (Homo sapiens, UniProt P53582); experiment: as above; format: biochemical, H. sapiens; conditions: Morrison Ki method
T2 construct: made in house

E. faecalis [1] = experiment: Growth inhibition screening (broth dilution); format: cell-based, Enterococcus faecalis; conditions: for inhibition at 250 µg/mL: Enterococcus faecalis
Method: (§1) In vitro screening of the compounds (PS1–14) was performed to assess the antibacterial activity against three Gram-positive (Staphylococcus aureus, Enterococcus faecalis and Bacillus subtilis,) and three Gram-negative (Pseudomonas aeruginosa, Klebsiella pneumonia and Escherichia coli) bacterial strains using the standard NCCLS broth dilution assay. The study’s standard drugs were ciprofloxacin (CIP) and ampicillin (AMP). Compounds were dissolved in a polar solvent (DMSO) and distributed into a 96-well plate in 200 µL of nutrient broth medium, with a final concentration of the compounds […] in each well. The bacterial cells (about 2.5 × 10^5 cells/mL) were inoculated into each well and incubated at 37 °C overnight. After incubation, the growth was measured by turbidity of the culture at 590 nm by spectrophotometer.

B. subtilis [2] = experiment: Growth inhibition screening (broth dilution); format: cell-based, Bacillus subtilis; conditions: for inhibition at 250 µg/mL: Bacillus subtilis
Method: as §1

S. aureus [3] = experiment: Growth inhibition screening (broth dilution); format: cell-based, Staphylococcus aureus; conditions: for inhibition at 250 µg/mL: Staphylococcus aureus
Method: as §1

P. aeruginosa [4] = experiment: Growth inhibition screening (broth dilution); format: cell-based, Pseudomonas aeruginosa; conditions: for inhibition at 250 µg/mL: Pseudomonas aeruginosa
Method: as §1

E. coli [5] = experiment: Growth inhibition screening (broth dilution); format: cell-based, Escherichia coli; conditions: for inhibition at 250 µg/mL: Escherichia coli
Method: as §1

K. pneumoniae [6] = experiment: Growth inhibition screening (broth dilution); format: cell-based, Klebsiella pneumonia; conditions: for inhibition at 250 µg/mL: Klebsiella pneumoniae
Method: as §1

E. faecalis [7] = experiment: Minimum inhibitory concentration (broth dilution); format: cell-based; conditions: Enterococcus faecalis, alone
B. subtilis [8] = experiment: Minimum inhibitory concentration (broth dilution); format: cell-based; conditions: Bacillus subtilis, alone
S. aureus [9] = experiment: Minimum inhibitory concentration (broth dilution); format: cell-based; conditions: Staphylococcus aureus, alone
P. aeruginosa [10] = experiment: Minimum inhibitory concentration (broth dilution); format: cell-based; conditions: Pseudomonas aeruginosa, alone
E. coli [11] = experiment: Minimum inhibitory concentration (broth dilution); format: cell-based, Escherichia coli; conditions: Escherichia coli, alone, read-out: MIC
K. pneumoniae [12] = experiment: Minimum inhibitory concentration (broth dilution); format: cell-based, Klebsiella pneumonia; conditions: alone
E. faecalis [13] = experiment: Minimum bactericidal concentration; format: cell-based, Enterococcus faecalis; conditions: for MBC: Enterococcus faecalis
B. subtilis [14] = experiment: Minimum bactericidal concentration; format: cell-based, Bacillus subtilis; conditions: for MBC: Bacillus subtilis
S. aureus [15] = experiment: Minimum bactericidal concentration; format: cell-based, Staphylococcus aureus; conditions: for MBC: Staphylococcus aureus
P. aeruginosa [16] = experiment: Minimum bactericidal concentration; format: cell-based, Pseudomonas aeruginosa; conditions: for MBC: Pseudomonas aeruginosa
E. coli [17] = experiment: Minimum bactericidal concentration; format: cell-based, Escherichia coli; conditions: for MBC: Escherichia coli
K. pneumoniae [18] = experiment: Minimum bactericidal concentration; format: cell-based, Klebsiella pneumonia; conditions: for MBC: Klebsiella pneumoniae
[19] = Klebsiella pneumoniae, read-out: MIC

Sequence of SpMetAP1a (Q8DPV1 entry or part of it): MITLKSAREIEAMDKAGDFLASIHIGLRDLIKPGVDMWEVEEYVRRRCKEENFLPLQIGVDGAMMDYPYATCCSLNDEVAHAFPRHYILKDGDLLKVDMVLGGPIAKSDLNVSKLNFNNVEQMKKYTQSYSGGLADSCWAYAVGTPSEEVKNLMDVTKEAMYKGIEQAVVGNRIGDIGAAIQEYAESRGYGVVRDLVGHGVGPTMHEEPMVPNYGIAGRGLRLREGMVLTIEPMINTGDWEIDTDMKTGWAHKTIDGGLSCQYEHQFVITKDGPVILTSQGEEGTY
Sequence of EfMetAP1a (Q832M5 entry or part of it): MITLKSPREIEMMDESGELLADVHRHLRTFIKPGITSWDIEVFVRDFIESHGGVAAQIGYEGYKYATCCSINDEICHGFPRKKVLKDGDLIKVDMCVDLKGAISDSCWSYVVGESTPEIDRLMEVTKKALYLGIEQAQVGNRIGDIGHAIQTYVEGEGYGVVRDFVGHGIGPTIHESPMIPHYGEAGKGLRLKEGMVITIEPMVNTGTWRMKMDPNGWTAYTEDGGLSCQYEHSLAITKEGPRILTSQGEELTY
T1 sequence (P9WK19 whole entry): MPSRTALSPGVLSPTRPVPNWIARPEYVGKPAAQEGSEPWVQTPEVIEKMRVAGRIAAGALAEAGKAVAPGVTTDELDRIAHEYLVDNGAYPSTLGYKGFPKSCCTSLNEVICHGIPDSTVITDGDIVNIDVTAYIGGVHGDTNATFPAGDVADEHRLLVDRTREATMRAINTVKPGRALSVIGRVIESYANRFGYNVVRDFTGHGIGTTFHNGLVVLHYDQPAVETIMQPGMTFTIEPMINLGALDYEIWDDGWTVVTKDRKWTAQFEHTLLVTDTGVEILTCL

SMILES	Ki (MtMetAP1c) [nM]	Ki (EfMetAP1a) [nM]	Ki (SpMetAP1a) [nM]	Ki (HsMetAP1b) [nM]	inhibition at 250 µg/mL (E. faecalis [1]) [%]	inhibition at 250 µg/mL (B. subtilis [2]) [%]	inhibition at 250 µg/mL (S. aureus [3]) [%]	inhibition at 250 µg/mL (P. aeruginosa [4]) [%]	inhibition at 250 µg/mL (E. coli [5]) [%]	inhibition at 250 µg/mL (K. pneumoniae [6]) [%]	MIC (E. faecalis [7]) [µg/mL]	MIC (B. subtilis [8]) [µg/mL]	MIC (S. aureus [9]) [µg/mL]	MIC (P. aeruginosa [10]) [µg/mL]	MIC (E. coli [11]) [µg/mL]	MIC (K. pneumoniae [12]; [19]) [µg/mL]	MBC/MIC Ratio (R*) (E. faecalis [13])	MBC (E. faecalis [13]) [µg/mL]	MBC/MIC Ratio (R*) (B. subtilis [14])	MBC (B. subtilis [14]) [µg/mL]	also measured
O=C1Nc2ccc(Cl)cc2/C1=N/NC(=O)c1ccc(N2C(=O)/C(=C\c3ccccc3)N=C2c2ccccc2)cc1 [B]																					MIC (Staphylococcus aureus): 12 µg/mL (≈ 22 µM)
O=C1Nc2cc(Cl)ccc2/C1=N\NC(=O)c1cc(-c2cccc(Br)c2)n[nH]1 [PS3, (E)-3-(3-Bromophenyl)-N′-(6-Chloro-2-Oxoindolin-3-Ylidene)-1H-Pyrazole-5-Carbohydrazide]	2320 ± 280	4630 ± 870	1790 ± 80	332000 ± 10900	60	89	64	90	89	97	128 (≈ 288 µM)	64 (≈ 144 µM)	128 (≈ 288 µM)	32 (≈ 72 µM)	128 (≈ 288 µM)	32 (≈ 72 µM)	2	256 (≈ 576 µM)	2	128 (≈ 288 µM)	MIC (K. pneumoniae [12]): 64 µg/mL (≈ 144 µM); MBC/MIC Ratio (R*) (S. aureus [15]): 1; MBC (S. aureus [15]): 128 µg/mL (≈ 288 µM); MBC/MIC Ratio (R*) (P. aeruginosa [16]): 8; MBC (P. aeruginosa [16]): 256 µg/mL (≈ 576 µM); MBC/MIC Ratio (R*) (E. coli [17]): 2; MBC (E. coli [17]): 256 µg/mL (≈ 576 µM); MBC/MIC Ratio (R*) (K. pneumoniae [18]): 8; MBC (K. pneumoniae [18]): 512 µg/mL (≈ 1150 µM); melting point: 182 to 185 °C
COc1ccc2c(c1)/C(=N\NC(=O)c1cc(-c3cccc(Br)c3)n[nH]1)C(=O)N2 [PS11, (E)-3-(3-Bromophenyl)-N′-(5-Methoxy-2-Oxoindolin-3-Ylidene)-1H-Pyrazole-5-Carbohydrazide]	1610 ± 250	2490 ± 310	1360 ± 170	15200 ± 3200	≥ 94	≥ 94	≥ 94	≥ 94	≥ 94	≥ 94	32 (≈ 72.7 µM)	> 256	128 (≈ 291 µM)	32 (≈ 72.7 µM)	128 (≈ 291 µM)	32 (≈ 72.7 µM)	1	32 (≈ 72.7 µM)	2	512 (≈ 1160 µM)	% Growth Inhibition at 250 µg/mL (E. faecalis [1]; listed as C00011): 100%; % Growth Inhibition at 250 µg/mL (B. subtilis [2]; listed as C00011): 100%; % Growth Inhibition at 250 µg/mL (S. aureus [3]; listed as C00011): 98%; % Growth Inhibition at 250 µg/mL (P. aeruginosa [4]; listed as C00011): 96%; % Growth Inhibition at 250 µg/mL (E. coli [5]; listed as C00011): 97%; % Growth Inhibition at 250 µg/mL (K. pneumoniae [6]; listed as C00011): 95%; MBC/MIC Ratio (R*) (S. aureus [15]): >4; MBC (S. aureus [15]): > 512 µg/mL; MBC/MIC Ratio (R*) (P. aeruginosa [16]): 4; MBC (P. aeruginosa [16]): 128 µg/mL (≈ 291 µM); MBC/MIC Ratio (R*) (E. coli [17]): 2; MBC (E. coli [17]): 256 µg/mL (≈ 581 µM); MBC/MIC Ratio (R*) (K. pneumoniae [18]): 1; MBC (K. pneumoniae [18]): 32 µg/mL (≈ 72.7 µM); melting point: 245 to 248 °C
